Assay: Strength and degradation profile of tigecycline 20 mg/mL bulk solutions by reversed phase HPLC (effect of temperature, time, pH, dissolved oxygen; Runs A to O)
Type: physicochemical
Details: 20 mg/mL
Description: The contents of the sample vials are dissolved in diluent. The sample solution is diluted, if necessary, and chromatographed on a reversed phase column using gradient elution. Impurities are determined by comparing the impurity peak areas in the sample preparation chromatogram to the average area of tigecycline peaks in the standard preparation chromatograms obtained concomitantly.
Chromatographic Column—Length about 15 cm, inside diameter about 4.6 mm, packed with Inertsil ODS2, 5 μm size particles or equivalent.
Detector—Ultraviolet spectrophotometric detector capable of operating at 248 nm with a sensitivity of about 0.5 absorbance units full scale.
The results of additional studies to investigate the effect of processing parameters such as temperature, time, and dissolved oxygen content on the purity profile of tigecycline solutions using the following materials, methods and procedures are presented in Tables A to O.
The experiments were run in plastic glove bags under normal laboratory light conditions. Plastic glove boxes will be used to control the headspace of the beakers. The batch size was 200 mL. • 1. Prepare the glove bag with a mixture of nitrogen and air to achieve an oxygen level in the solution as per the design. • 2. Place the jacketed beaker on the magnetic stirrer. Connect it to the cooler. Set the cooler to the desired set point. • 3. Add 200 mL of SWFI in to the beaker. Allow equilibrating. Measure the temperature and oxygen content. When it reaches the desired condition, add accurately weighed API and mix until dissolved. If necessary use spatula to aid dissolution. For pH adjustments, use 4 mL of either 0.1N NaOH or 0.1N HCl and 196 mL of WFI for manufacture. • 4. After complete dissolution, Transfer about 5.5 mL of Solution in vials and stopper them. These vials will be stoppered at the appropriate headspace conditions. Place the vials in appropriate temperature conditions. • 5. Sample the vials at 1, 4, 8, 10, 12 and 24 hours. Send the samples for analysis. Freeze the 10, 12 and 24 samples at −20° C. for analysis the following day. • 6. Measure pH and record color of the solution at each time point. Results
The 1-hour samples were taken directly from the beakers. Samples for later time points were collected in stoppered vials processed in the atmosphere of the bag in order to simulate the headspace conditions then placed in water baths or refrigerator to maintain there respective temperature conditions. This was done to maintain safety in the lab. Disposable plastic glove bags require constant flow of a mixture of nitrogen and air to maintain headspace oxygen level that will result in the desired dissolved oxygen (DO) content in the sample. The pH of samples was measured at each sample points.
Strength and degradation profile was analyzed by HPLC as described above. […] Degradation was slightly higher at higher temperature condition.

[1] = Run #F, 2° C., hours 1,4,8,12,24 at r5-r9, 8 h after preparation
[2] = Run #F, 2° C., hours 1,4,8,12,24 at r5-r9, 12 h after preparation
[3] = Run #F, 2° C., hours 1,4,8,12,24 at r5-r9, 24 h after preparation
[4] = Run #G, 5° C., hours 1,4,8,12,24 at r6-r10, after 4 hours
[5] = Run #G, 5° C., hours 1,4,8,12,24 at r6-r10, after 24 hours
[6] = Run #G, 5° C., hours 1,4,8,12,24 at r16-r20, after 1 hours
[7] = Run #G, 5° C., hours 1,4,8,12,24 at r16-r20, after 4 hours
[8] = Run #G, 5° C., hours 1,4,8,12,24 at r16-r20, after 8 hours
[9] = Run #G, 5° C., hours 1,4,8,12,24 at r16-r20, after 12 hours
[10] = Run #G, 5° C., hours 1,4,8,12,24 at r16-r20, after 24 hours
[11] = Run #H, 5° C., pH 7.9, Oxygen 1.0 mg/L, hours 1,4,8,10,12,24 at r6-r11
[12] = Run #H, 5° C., pH 7.9, Oxygen 1.0 mg/L, hours 1,4,8,10,12,24 at r6-r11, 1 h
[13] = Run #H, 5° C., pH 7.9, Oxygen 1.0 mg/L, hours 1,4,8,10,12,24 at r6-r11, 4 h
[14] = Run #H, 5° C., pH 7.9, Oxygen 1.0 mg/L, hours 1,4,8,10,12,24 at r6-r11, 10 h
[15] = Run #H, 5° C., pH 7.9, Oxygen 1.0 mg/L, hours 1,4,8,10,12,24 at r6-r11, 12 h
[16] = Run #H, 5° C., pH 7.9, Oxygen 1.0 mg/L, hours 1,4,8,10,12,24 at r6-r11, 24 h
[17] = Run #H, 5° C., pH 7.9, Oxygen 1.0 mg/L, hours 1,4,8,10,12,24 at r17-r22, 1 h
[18] = Run #H, 5° C., pH 7.9, Oxygen 1.0 mg/L, hours 1,4,8,10,12,24 at r17-r22, 4 h
[19] = Run #H, 5° C., pH 7.9, Oxygen 1.0 mg/L, hours 1,4,8,10,12,24 at r17-r22, 8 h
[20] = Run #H, 5° C., pH 7.9, Oxygen 1.0 mg/L, hours 1,4,8,10,12,24 at r17-r22, 10 h
[21] = Run #H, 5° C., pH 7.9, Oxygen 1.0 mg/L, hours 1,4,8,10,12,24 at r17-r22, 12 h
[22] = Run #H, 5° C., pH 7.9, Oxygen 1.0 mg/L, hours 1,4,8,10,12,24 at r17-r22, 24 h
[23] = Run #I, 5° C., pH 7.9, Oxygen 1.0 mg/L, hours 1,4,8,10,12,24 at r6-r11, 1 h
[24] = Run #I, 5° C., pH 7.9, Oxygen 1.0 mg/L, hours 1,4,8,10,12,24 at r6-r11, 4 h
[25] = Run #I, 5° C., pH 7.9, Oxygen 1.0 mg/L, hours 1,4,8,10,12,24 at r6-r11, 8 h
[26] = Run #I, 5° C., pH 7.9, Oxygen 1.0 mg/L, hours 1,4,8,10,12,24 at r6-r11, 10 h
[27] = Run #I, 5° C., pH 7.9, Oxygen 1.0 mg/L, hours 1,4,8,10,12,24 at r6-r11, 12 h

## CN(C)c1cc(NC(=O)CNC(C)(C)C)c(O)c2c1C[C@H]1C[C@H]3[C@H](N(C)C)C(O)=C(C(N)=O)C(=O)[C@@]3(O)C(O)=C1C2=O [Tigecycline]
[1]
  RRT 1.45: 0.09%
  RRT 1.85 MW = 597: 0.08%
  Total: 1.00%
[2]
  RRT 0.74 Epimer: 0.18%
  RRT 1.45: 0.08%
  Total: 1.07%
[3]
  RRT 0.74 Epimer: 0.19%
  Total: 1.43%
Run #G, 5° C., Oxygen = 1.0 mg/mL, hours 1,4,8,12,24 at r6-r10, after 1 hours
  Strength: 18.577 mg/mL
Run #G, 5° C., Oxygen = 1.0 mg/mL, hours 1,4,8,12,24 at r6-r10, after 4 hours
  Strength: 18.694 mg/mL
Run #G, 5° C., Oxygen = 1.0 mg/mL, hours 1,4,8,12,24 at r6-r10, after 8 hours
  Strength: 18.487 mg/mL
Run #G, 5° C., Oxygen = 1.0 mg/mL, hours 1,4,8,12,24 at r6-r10, after 12 hours
  Strength: 18.507 mg/mL
Run #G, 5° C., Oxygen = 1.0 mg/mL, hours 1,4,8,12,24 at r6-r10, after 24 hours
  Strength: 18.587 mg/mL
Run #G, 5° C., Oxygen = 1.0 mg/mL, hours 1,4,8,12,24 at r16-r20, after 1 hours
  RRT 1.67 MW = 556: 0.08%
Run #G, 5° C., Oxygen = 1.0 mg/mL, hours 1,4,8,12,24 at r16-r20, after 4 hours
  RRT 1.67 MW = 556: 0.14%
Run #G, 5° C., Oxygen = 1.0 mg/mL, hours 1,4,8,12,24 at r16-r20, after 8 hours
  RRT 1.67 MW = 556: 0.17%
Run #G, 5° C., Oxygen = 1.0 mg/mL, hours 1,4,8,12,24 at r16-r20, after 12 hours
  RRT 1.67 MW = 556: 0.20%
Run #G, 5° C., Oxygen = 1.0 mg/mL, hours 1,4,8,12,24 at r16-r20, after 24 hours
  RRT 1.67 MW = 556: 0.23%
Run #G, 5° C., hours 1,4,8,12,24 at r6-r10, after 1 hours
  RRT 0.74 Epimer: 0.16%
[4]
  RRT 0.58: 0.07%
  RRT 0.74 Epimer: 0.17%
Run #G, 5° C., hours 1,4,8,12,24 at r6-r10, after 8 hours
  RRT 0.74 Epimer: 0.18%
Run #G, 5° C., hours 1,4,8,12,24 at r6-r10, after 12 hours
  RRT 0.74 Epimer: 0.20%
[5]
  RRT 0.58: 0.08%
  RRT 0.74 Epimer: 0.21%
[6]
  RRT 1.45: 0.08%
  RRT 1.64 Mino: 0.11%
  RRT 1.85 MW = 597: 0.08%
  Total: 0.58%
[7]
  RRT 1.64 Mino: 0.07%
  Total: 0.78%
[8]
  RRT 1.45: 0.07%
  RRT 1.85 MW = 597: 0.09%
  Total: 1.12%
[9]
  RRT 1.45: 0.09%
  Total: 1.34%
[10]
  RRT 1.85 MW = 597: 0.10%
  Total: 2.09%
[11]
  RRT 0.58: 0.09%
  RRT 0.64 9-Amino: BRL (BRL means below reporting limit (meaning less than 0.05% of tigecycline peak))
[12]
  RRT 0.74 Epimer: 0.19%
  Strength: 19.457 mg/mL
[13]
  RRT 0.74 Epimer: 0.20%
  Strength: 19.441 mg/mL
Run #H, 5° C., pH 7.9, Oxygen 1.0 mg/L, hours 1,4,8,10,12,24 at r6-r11, 8 h
  Strength: 19.361 mg/mL
[14]
  RRT 0.74 Epimer: 0.25%
  Strength: 19.447 mg/mL
[15]
  RRT 0.74 Epimer: 0.27%
  Strength: 20.119 mg/mL
[16]
  RRT 0.74 Epimer: 0.23%
  Strength: 19.319 mg/mL
Run #H, 5° C., pH 7.9, Oxygen 1.0 mg/L, hours 1,4,8,10,12,24 at r17-r22
  RRT 0.78 MW = 557: BRL (BRL means below reporting limit (meaning less than 0.05% of tigecycline peak))
[17]
  RRT 1.45: 0.09%
  RRT 1.64 Mino: 0.12%
  RRT 1.85 MW = 597: 0.07%
  Total: 0.60%
[18]
  RRT 1.45: 0.07%
  RRT 1.64 Mino: 0.09%
  RRT 1.85 MW = 597: 0.08%
  Total: 0.70%
[19]
  RRT 1.64 Mino: 0.10%
  Total: 0.66%
[20]
  RRT 1.64 Mino: 0.11%
  Total: 0.90%
[21]
  RRT 1.85 MW = 597: 0.09%
  Total: 0.87%
[22]
  RRT 1.45: 0.05%
  RRT 1.64 Mino: 0.15%
  RRT 1.85 MW = 597: 0.10%
  Total: 1.03%
Run #I, 5° C., pH 7.9, Oxygen 1.0 mg/L, hours 1,4,8,10,12,24 at r6-r11
  RRT 0.64 9-Amino: BRL (BRL means below reporting limit (meaning less than 0.05% of tigecycline peak))
[23]
  RRT 0.58: 0.08%
  RRT 0.74 Epimer: 0.19%
  Strength: 19.263 mg/mL
[24]
  RRT 0.58: 0.09%
  RRT 0.74 Epimer: 0.21%
  Strength: 19.361 mg/mL
[25]
  RRT 0.58: 0.06%
  RRT 0.74 Epimer: 0.18%
  Strength: 19.131 mg/mL
[26]
  RRT 0.74 Epimer: 0.29%
  Strength: 19.204 mg/mL
[27]
  RRT 0.58: 0.07%
  RRT 0.74 Epimer: 0.26%

— patent publication US20070026080A1, “Manufacturing process for tigecycline” (Wyeth, priority 2005, published 2007)
